Test results: ChEMBL document CHEMBL3352237, “Synthesis and biological evaluation of novel peptide BF2 as an antibacterial agent against clinical isolates of vancomycin-resistant enterococci” (J Med Chem, 2014)

How the values were obtained:
Assay type in all cases: functional
Enterococcus = test: Bactericidal activity against […] after 24 hrs by two-fold serial dilution method; details: ATCC 29212, 24 h
Enterococcus faecium [1] = test: Bactericidal activity against vancomycin-resistant Enterococcus faecium clinical isolate 29/203 after 24 hrs by two-fold serial dilution method; details: isolate 29/203, 24 h
Enterococcus faecalis [2] = test: Bactericidal activity against vancomycin-resistant Enterococcus faecalis clinical isolate 7079 after 24 hrs by two-fold serial dilution method; details: isolate 7079, 24 h
Enterococcus faecium [3] = test: Antibacterial activity against vancomycin-resistant Enterococcus faecium clinical isolate 151495 after overnight incubation by two-fold serial dilution method
Enterococcus faecalis [4] = test: Antibacterial activity against vancomycin-resistant Enterococcus faecalis clinical isolate 22626 after overnight incubation by two-fold serial dilution method
Enterococcus faecium [5] = test: Antibacterial activity against vancomycin-resistant Enterococcus faecium clinical isolate 12/266 after overnight incubation by two-fold serial dilution method
Enterococcus faecium [6] = test: Antibacterial activity against vancomycin-resistant Enterococcus faecium clinical isolate 3864 after overnight incubation by two-fold serial dilution method
Enterococcus faecalis [7] = test: Antibacterial activity against vancomycin-resistant Enterococcus faecalis clinical isolate 7670 after overnight incubation by two-fold serial dilution method
Enterococcus faecalis [8] = test: Antibacterial activity against vancomycin-resistant Enterococcus faecalis clinical isolate 6093 after overnight incubation by two-fold serial dilution method
Enterococcus faecium [9] = test: Bactericidal activity against vancomycin-resistant Enterococcus faecium clinical isolate 151495 after 24 hrs by two-fold serial dilution method; details: isolate 151495, 24 h
Enterococcus faecium [10] = test: Antibacterial activity against vancomycin-resistant Enterococcus faecium clinical isolate 16475 after overnight incubation by two-fold serial dilution method
Enterococcus faecium [11] = test: Bactericidal activity against vancomycin-resistant Enterococcus faecium clinical isolate 18906 after 24 hrs by two-fold serial dilution method; details: isolate 18906, 24 h
Enterococcus faecium [12] = test: Bactericidal activity against vancomycin-resistant Enterococcus faecium clinical isolate 5396 after 24 hrs by two-fold serial dilution method; details: isolate 5396, 24 h
Enterococcus faecium [13] = test: Antibacterial activity against vancomycin-resistant Enterococcus faecium clinical isolate 28/211 after overnight incubation by two-fold serial dilution method
Enterococcus faecium [14] = test: Bactericidal activity against vancomycin-resistant Enterococcus faecium clinical isolate 13246 after 24 hrs by two-fold serial dilution method; details: isolate 13246, 24 h
Enterococcus faecium [15] = test: Antibacterial activity against vancomycin-resistant Enterococcus faecium clinical isolate 30/48 after overnight incubation by two-fold serial dilution method

Q: With H-RWRLLLLKKH-OH as the substance, how does the MBC (Enterococcus) read?
A: 25 µg/mL

Q: What about the MBC (Enterococcus faecium [1]) of the same substance?
A: 25 µg/mL

Q: What about the MBC (Enterococcus faecalis [2]) of the same substance?
A: 25 µg/mL

Q: And the MIC (Enterococcus faecium [3])?
A: 6.25 µg/mL

Q: What about the MIC (Enterococcus faecalis [4]) of the same substance?
A: 12.5 µg/mL

Q: What about the MIC (Enterococcus faecium [5]) of the same substance?
A: 6.25 µg/mL

Q: What about the MIC (Enterococcus faecium [6]) of the same substance?
A: 6.25 µg/mL

Q: What about the MIC (Enterococcus faecalis [7]) of the same substance?
A: 12.5 µg/mL

Q: What about the MIC (Enterococcus faecalis [8]) of the same substance?
A: 12.5 µg/mL

Q: What about the MBC (Enterococcus faecium [9]) of the same substance?
A: 25 µg/mL

Q: And the MIC (Enterococcus faecium [10])?
A: 12.5 µg/mL

Q: What about the MBC (Enterococcus faecium [11]) of the same substance?
A: 25 µg/mL

Q: And the MBC (Enterococcus faecium [12])?
A: 25 µg/mL

Q: And the MIC (Enterococcus faecium [13])?
A: 12.5 µg/mL

Q: What about the MBC (Enterococcus faecium [14]) of the same substance?
A: 25 µg/mL

Q: What about the MIC (Enterococcus faecium [15]) of the same substance?
A: 12.5 µg/mL
